Experiments:
hTIE1 = molecular target: T1, hTIE1 (Homo sapiens, UniProt P35590); experiment: KINOMEscan; assay type: binding
T1 construct: purchased DiscoverX

hTXK = molecular target: T2, hTXK (Homo sapiens, UniProt P42681); experiment: KINOMEscan; assay type: binding
T2 construct: purchased DiscoverX

hRIPK2 = molecular target: T3, hRIPK2 (Homo sapiens, UniProt O43353); experiment: KINOMEscan; assay type: binding
T3 construct: purchased DiscoverX (KINOMEscan platform)

hAKT3 = molecular target: T4, hAKT3 (Homo sapiens, UniProt Q9Y243); experiment: KINOMEscan; assay type: binding
T4 construct: purchased DiscoverX
T4 sequence (Q9Y243 whole entry): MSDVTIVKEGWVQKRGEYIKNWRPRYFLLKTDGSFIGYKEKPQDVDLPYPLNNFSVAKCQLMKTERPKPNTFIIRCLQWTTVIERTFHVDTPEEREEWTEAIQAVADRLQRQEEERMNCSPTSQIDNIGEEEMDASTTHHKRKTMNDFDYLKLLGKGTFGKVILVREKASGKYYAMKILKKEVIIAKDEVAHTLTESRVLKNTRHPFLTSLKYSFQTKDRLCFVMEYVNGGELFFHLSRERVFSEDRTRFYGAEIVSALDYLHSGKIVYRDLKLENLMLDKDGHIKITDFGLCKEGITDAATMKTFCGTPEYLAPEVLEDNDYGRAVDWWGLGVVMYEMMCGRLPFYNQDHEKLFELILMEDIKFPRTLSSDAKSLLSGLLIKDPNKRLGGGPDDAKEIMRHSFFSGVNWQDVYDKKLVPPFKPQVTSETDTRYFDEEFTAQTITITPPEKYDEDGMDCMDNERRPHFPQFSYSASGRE

hTNIK = molecular target: T5, hTNIK (Homo sapiens, UniProt Q9UKE5); experiment: KINOMEscan; assay type: binding
T5 construct: purchased DiscoverX

hEPHA8 = molecular target: T6, hEPHA8 (Homo sapiens, UniProt P29322); experiment: KINOMEscan; assay type: binding
T6 construct: purchased DiscoverX

hLIMK1 = molecular target: T7, hLIMK1 (Homo sapiens, UniProt P53667); experiment: KINOMEscan; assay type: binding
T7 construct: purchased DiscoverX (KINOMEscan platform)
T7 sequence (P53667 whole entry): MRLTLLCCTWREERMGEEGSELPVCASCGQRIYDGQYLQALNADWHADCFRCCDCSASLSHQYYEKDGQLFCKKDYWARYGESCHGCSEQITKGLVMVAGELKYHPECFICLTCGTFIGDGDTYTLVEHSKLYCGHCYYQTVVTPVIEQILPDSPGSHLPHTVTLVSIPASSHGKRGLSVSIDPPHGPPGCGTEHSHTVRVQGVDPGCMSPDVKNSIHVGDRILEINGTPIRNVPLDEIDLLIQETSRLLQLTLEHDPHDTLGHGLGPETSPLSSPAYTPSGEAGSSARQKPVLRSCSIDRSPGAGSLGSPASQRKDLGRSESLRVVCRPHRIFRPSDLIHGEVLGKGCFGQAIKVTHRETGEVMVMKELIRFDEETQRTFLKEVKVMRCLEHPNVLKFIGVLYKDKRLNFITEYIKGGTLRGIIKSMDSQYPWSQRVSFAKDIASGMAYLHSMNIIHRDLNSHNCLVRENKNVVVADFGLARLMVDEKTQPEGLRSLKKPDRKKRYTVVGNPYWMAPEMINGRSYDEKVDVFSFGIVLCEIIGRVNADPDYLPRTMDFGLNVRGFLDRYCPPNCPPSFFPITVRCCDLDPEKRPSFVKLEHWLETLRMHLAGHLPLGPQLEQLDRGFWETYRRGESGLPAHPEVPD

hJNK2 = molecular target: T8, hJNK2 (Homo sapiens, UniProt P45984); experiment: KINOMEscan; assay type: binding
T8 construct: purchased DiscoverX (KINOMEscan panel)
T8 sequence (P45984 whole entry): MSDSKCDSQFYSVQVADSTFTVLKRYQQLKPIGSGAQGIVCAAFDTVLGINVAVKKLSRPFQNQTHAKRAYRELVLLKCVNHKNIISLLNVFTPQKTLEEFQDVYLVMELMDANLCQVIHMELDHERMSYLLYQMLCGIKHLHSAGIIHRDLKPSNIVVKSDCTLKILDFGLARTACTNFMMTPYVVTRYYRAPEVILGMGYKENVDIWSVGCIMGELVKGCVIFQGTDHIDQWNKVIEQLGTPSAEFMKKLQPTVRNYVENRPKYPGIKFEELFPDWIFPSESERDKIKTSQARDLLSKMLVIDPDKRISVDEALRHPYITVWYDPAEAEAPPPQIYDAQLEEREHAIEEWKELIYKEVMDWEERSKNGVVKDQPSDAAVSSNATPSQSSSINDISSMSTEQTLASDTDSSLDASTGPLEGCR

[1] = molecular target: T9, hRPS6KA4(Kin.Dom.1-N-term) (Homo sapiens, UniProt O75676); experiment: KINOMEscan; assay type: binding
T9 construct: hRPS6KA4(Kin.Dom.1-N-term); purchased DiscoverX (KINOMEscan platform)

hFLT3(D835H) = molecular target: T10, hFLT3(D835H) (Homo sapiens, UniProt P36888, D835H); experiment: KINOMEscan; assay type: binding
T10 construct: purchased DiscoverX

hLCK = molecular target: T11, hLCK (Homo sapiens, UniProt P06239); experiment: KINOMEscan; assay type: binding
T11 construct: purchased DiscoverX (KINOMEscan platform)

hDRAK1 = molecular target: T12, hDRAK1 (Homo sapiens, UniProt Q9UEE5); experiment: KINOMEscan; assay type: binding
T12 construct: purchased DiscoverX

hBMPR2 = molecular target: T13, hBMPR2 (Homo sapiens, UniProt Q13873); experiment: KINOMEscan; assay type: binding
T13 construct: purchased DiscoverX

hAMPK-alpha1 = molecular target: T14, hAMPK-alpha1 (Homo sapiens, UniProt Q13131); experiment: KINOMEscan; assay type: binding
T14 construct: purchased DiscoverX

hTRα1 = molecular target: T15, hTRα1 (Homo sapiens, UniProt P10827); experiment: Nuclear hormone receptor assay (Eurofins-CEREP); conditions: read-out: Relative IC50
T15 construct: Eurofins-CEREP

hDAPK1 = molecular target: T16, hDAPK1 (Homo sapiens, UniProt P53355); experiment: KINOMEscan; assay type: binding
T16 construct: purchased DiscoverX (KINOMEscan platform)

hWNK1 = molecular target: T17, hWNK1 (Homo sapiens, UniProt Q9H4A3); experiment: KINOMEscan; assay type: binding
T17 construct: purchased DiscoverX

hADRβ1 = hADRβ1 (Homo sapiens, UniProt P08588); experiment: cAMP Potentiation (Eurofins-CEREP); conditions: @ 10 μM
hADRβ1, sequence (P08588 whole entry): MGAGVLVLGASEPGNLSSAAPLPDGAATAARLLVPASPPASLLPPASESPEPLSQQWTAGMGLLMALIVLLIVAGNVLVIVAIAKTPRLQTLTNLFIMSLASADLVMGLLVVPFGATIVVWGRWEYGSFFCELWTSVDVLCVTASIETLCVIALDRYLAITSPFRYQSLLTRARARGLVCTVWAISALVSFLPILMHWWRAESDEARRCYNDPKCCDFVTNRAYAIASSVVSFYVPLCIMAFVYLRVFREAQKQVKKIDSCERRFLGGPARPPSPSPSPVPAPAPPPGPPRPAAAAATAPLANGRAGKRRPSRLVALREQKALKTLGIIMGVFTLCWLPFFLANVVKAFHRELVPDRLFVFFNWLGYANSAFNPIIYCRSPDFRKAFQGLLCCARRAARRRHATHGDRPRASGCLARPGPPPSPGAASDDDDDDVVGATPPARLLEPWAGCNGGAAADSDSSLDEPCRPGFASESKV

hABL1(F317I) = molecular target: T18, hABL1(F317I) (Homo sapiens, UniProt P00519, F317I); experiment: KINOMEscan; assay type: binding
T18 construct: purchased DiscoverX (KINOMEscan platform)

hEGFR(T790M) = molecular target: T19, hEGFR(T790M) (Homo sapiens, UniProt P00533, T790M); experiment: KINOMEscan; assay type: binding
T19 construct: purchased DiscoverX

hPIP5K1A = molecular target: T20, hPIP5K1A (Homo sapiens, UniProt Q99755); experiment: KINOMEscan; assay type: binding
T20 construct: purchased DiscoverX
T20 sequence (Q99755 whole entry): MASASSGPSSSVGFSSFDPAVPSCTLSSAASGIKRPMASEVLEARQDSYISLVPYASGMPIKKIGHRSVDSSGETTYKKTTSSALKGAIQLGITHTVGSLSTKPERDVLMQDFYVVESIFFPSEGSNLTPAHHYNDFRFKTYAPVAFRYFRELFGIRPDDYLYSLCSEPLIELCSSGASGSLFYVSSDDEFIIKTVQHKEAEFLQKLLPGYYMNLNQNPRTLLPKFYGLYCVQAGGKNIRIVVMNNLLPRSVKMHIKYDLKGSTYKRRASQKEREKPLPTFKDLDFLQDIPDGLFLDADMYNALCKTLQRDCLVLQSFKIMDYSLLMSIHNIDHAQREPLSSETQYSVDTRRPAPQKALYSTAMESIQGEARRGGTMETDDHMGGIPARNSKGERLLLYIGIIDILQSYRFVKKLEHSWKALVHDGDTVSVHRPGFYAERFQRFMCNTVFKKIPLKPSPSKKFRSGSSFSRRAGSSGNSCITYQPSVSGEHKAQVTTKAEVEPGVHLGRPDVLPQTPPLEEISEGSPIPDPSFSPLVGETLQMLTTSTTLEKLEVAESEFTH

hERBB2 = molecular target: T21, hERBB2 (Homo sapiens, UniProt P04626); experiment: KINOMEscan; assay type: binding
T21 construct: purchased DiscoverX
T21 sequence (P04626 23-1255): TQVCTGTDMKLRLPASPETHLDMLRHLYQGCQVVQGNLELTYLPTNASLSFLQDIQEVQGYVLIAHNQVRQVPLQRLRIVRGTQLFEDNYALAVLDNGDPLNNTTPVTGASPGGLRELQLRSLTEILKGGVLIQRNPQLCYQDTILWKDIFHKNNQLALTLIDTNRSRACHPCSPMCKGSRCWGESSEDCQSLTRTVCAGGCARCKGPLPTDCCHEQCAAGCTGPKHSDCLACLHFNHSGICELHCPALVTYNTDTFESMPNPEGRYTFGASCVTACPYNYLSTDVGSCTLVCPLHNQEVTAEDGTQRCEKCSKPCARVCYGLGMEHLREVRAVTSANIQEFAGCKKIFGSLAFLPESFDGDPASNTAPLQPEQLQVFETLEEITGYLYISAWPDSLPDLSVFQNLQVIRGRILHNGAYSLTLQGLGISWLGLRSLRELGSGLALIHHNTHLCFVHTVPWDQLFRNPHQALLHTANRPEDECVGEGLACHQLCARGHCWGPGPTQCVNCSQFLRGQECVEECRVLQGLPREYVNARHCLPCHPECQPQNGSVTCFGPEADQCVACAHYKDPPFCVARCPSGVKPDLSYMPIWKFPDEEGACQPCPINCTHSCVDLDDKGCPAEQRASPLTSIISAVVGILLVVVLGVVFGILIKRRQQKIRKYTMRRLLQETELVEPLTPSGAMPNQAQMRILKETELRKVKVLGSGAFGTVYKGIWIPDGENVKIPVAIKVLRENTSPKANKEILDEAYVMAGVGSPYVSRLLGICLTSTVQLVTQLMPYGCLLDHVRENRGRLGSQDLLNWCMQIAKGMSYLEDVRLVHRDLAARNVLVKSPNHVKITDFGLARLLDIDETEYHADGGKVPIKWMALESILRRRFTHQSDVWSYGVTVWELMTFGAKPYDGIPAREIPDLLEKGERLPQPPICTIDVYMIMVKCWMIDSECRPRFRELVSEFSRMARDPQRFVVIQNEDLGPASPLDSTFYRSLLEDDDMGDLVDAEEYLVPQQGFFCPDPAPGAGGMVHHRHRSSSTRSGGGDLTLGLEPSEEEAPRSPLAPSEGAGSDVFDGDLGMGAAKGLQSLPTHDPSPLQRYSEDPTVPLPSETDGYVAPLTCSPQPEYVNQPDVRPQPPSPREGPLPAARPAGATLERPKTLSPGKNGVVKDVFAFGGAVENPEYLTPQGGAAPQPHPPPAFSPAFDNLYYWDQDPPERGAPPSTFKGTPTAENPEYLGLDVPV

[2] = system: SMYD2-induced p53 methylation; experiment: Cell-based ELISA for p53 Lys370me1, U2OS cells transfected with FLAG-SMYD2; conditions: Homo sapiens, 15 h
Method: Cell lysates were subject to 10% SDS-PAGE and transferred to a PVDF membrane. Each membrane was blocked in Odyssey Blocking Buffer (LI-COR Biosciences) and incubated with monoclonal anti-p53 (D01) antibody (Abcam, ab1101) or rabbit anti-p53 Lys^370me1 antibody (a kind gift from Dr. Shelley Berger) followed by detection with IRDye®680RD goat anti-mouse IgG (LI-COR Biosciences) and IRDye800CW goat anti-rabbit IgG (LI-COR Biosciences) on the Odyssey Imager (LI-COR Biosciences). […] 4–8 h later, cells were treated with 0–25 μM compound for 15 h. […] 24 h later, cells were lysed with 200 μl of MSD Tris Lysis Buffer^TM (Meso Scale Discovery). A MULTI-ARRAY^TM 96-well plate (Meso Scale Discovery, catalog number L15XA-3) was precoated with 2 μg/ml custom-made methyl-p53 antibody (Lampire) in PBS overnight at 4 °C. 150 μl/well MSD Blocking Solution A^TM (final concentration of 3%) was added followed by shaking at room temperature for 1 h. The plate was washed three times with 1× MSD Tris Wash Buffer^TM (Meso Scale Discovery). 0.5 μg of cell lysate in 25 μl/well MSD Tris Lysis Buffer was added, followed by shaking overnight at 4 °C. […] Following a final wash three times with 1× MSD Tris Wash Buffer, 150 μl/well 1× MSD Read Buffer^TM (Meso Scale Discovery) was added, and plates were read on an MSD SECTOR^TM Imager 6000 instrument (Meso Scale Discovery).

hM3 = hM3 (Homo sapiens, UniProt P20309); experiment: β-arrestin Antagonist (Eurofins-CEREP); conditions: read-out: % Effect, Inhibition
hM3, sequence (P20309 whole entry): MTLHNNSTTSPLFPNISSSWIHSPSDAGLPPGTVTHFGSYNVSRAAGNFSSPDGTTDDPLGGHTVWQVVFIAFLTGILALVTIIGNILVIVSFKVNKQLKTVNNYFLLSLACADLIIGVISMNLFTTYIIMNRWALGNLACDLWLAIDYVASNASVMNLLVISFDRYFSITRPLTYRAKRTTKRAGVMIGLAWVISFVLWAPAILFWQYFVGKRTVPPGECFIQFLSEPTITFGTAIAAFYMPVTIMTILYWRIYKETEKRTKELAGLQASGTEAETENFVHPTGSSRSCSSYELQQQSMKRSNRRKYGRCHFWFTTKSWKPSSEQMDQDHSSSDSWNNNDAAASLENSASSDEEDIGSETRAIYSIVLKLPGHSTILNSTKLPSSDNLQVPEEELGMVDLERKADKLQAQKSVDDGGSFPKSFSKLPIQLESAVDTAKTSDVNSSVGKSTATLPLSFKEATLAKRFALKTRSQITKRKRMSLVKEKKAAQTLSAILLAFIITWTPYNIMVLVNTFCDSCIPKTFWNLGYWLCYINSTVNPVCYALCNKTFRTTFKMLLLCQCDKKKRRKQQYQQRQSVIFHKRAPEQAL

hACVR2B = molecular target: T22, hACVR2B (Homo sapiens, UniProt Q13705); experiment: KINOMEscan; assay type: binding
T22 construct: purchased DiscoverX (KINOMEscan platform)
T22 sequence (Q13705 19-512): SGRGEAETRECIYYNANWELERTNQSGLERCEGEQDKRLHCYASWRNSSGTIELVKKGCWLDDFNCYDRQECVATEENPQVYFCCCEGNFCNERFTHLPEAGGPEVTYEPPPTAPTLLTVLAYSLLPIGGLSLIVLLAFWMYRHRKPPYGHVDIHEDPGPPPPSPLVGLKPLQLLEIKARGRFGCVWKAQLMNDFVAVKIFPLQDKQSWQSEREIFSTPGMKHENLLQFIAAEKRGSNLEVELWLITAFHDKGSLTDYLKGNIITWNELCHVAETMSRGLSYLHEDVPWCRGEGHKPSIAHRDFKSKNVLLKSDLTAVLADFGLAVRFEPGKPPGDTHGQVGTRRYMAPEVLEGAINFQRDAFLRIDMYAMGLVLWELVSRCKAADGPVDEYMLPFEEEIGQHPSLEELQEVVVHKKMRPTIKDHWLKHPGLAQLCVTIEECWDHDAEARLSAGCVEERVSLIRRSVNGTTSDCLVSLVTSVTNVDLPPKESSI

hCSF1R-autoinhib = molecular target: T23, hCSF1R-autoinhib (Homo sapiens, UniProt P07333); experiment: KINOMEscan; assay type: binding; conditions: read-out: Inhibition at the 20 μM dose
T23 construct: purchased DiscoverX (KINOMEscan platform)

hERBB4 = molecular target: T24, hERBB4 (Homo sapiens, UniProt Q15303); experiment: KINOMEscan; assay type: binding
T24 construct: purchased DiscoverX

hRET(M918T) = molecular target: T25, hRET(M918T) (Homo sapiens, UniProt P07949, M918T); experiment: KINOMEscan; assay type: binding
T25 construct: purchased DiscoverX (KINOMEscan platform)

hVRK2 = molecular target: T26, hVRK2 (Homo sapiens, UniProt Q86Y07); experiment: KINOMEscan; assay type: binding
T26 construct: purchased DiscoverX

hRIOK1 = molecular target: T27, hRIOK1 (Homo sapiens, UniProt Q9BRS2); experiment: KINOMEscan; assay type: binding
T27 construct: purchased DiscoverX (KINOMEscan platform)

Cc1cn(CCN2CCN(c3ccccc3-c3cc(C#N)cc(C(=O)NCCCN4CCCC4)c3)CC2)c2ccccc12 [LLY-507, 3-cyano-5-{2-[4-[2-(3-methylindol-1-yl)ethyl]piperazin-1-yl]-phenyl}-N-[(3-pyrrolidin-1-yl)propyl]benzamide]
IC50 (hTIE1): > 20 µM | IC50 (hTXK): > 20 µM | IC50 (hRIPK2): > 20 µM | IC50 (hAKT3): > 20 µM | IC50 (hTNIK): > 20 µM | IC50 (hEPHA8): > 20 µM | IC50 (hLIMK1): > 20 µM | IC50 (hJNK2): > 20 µM | IC50 [1]: > 20 µM | IC50 (hFLT3(D835H)): > 20 µM | IC50 (hLCK): > 20 µM | IC50 (hDRAK1): > 20 µM | IC50 (hBMPR2): > 20 µM | IC50 (hAMPK-alpha1): > 20 µM | IC50 (hTRα1): > 10 µM | IC50 (hDAPK1): > 20 µM | IC50 (hWNK1): > 20 µM | % Effect, Potentiation (hADRβ1): 32.1% | IC50 (hABL1(F317I)): > 20 µM | IC50 (hEGFR(T790M)): > 20 µM | IC50 (hPIP5K1A): 16.4 µM | IC50 (hERBB2): > 20 µM | IC50 [2]: 0.6 µM | inhibition at 10 µM (hM3): -23.6% | IC50 (hACVR2B): > 20 µM | inhibition at 20 µM (hCSF1R-autoinhib): < 50% | IC50 (hERBB4): > 20 µM | IC50 (hRET(M918T)): > 20 µM | IC50 (hVRK2): > 20 µM | IC50 (hRIOK1): > 20 µM

— publication PMC4447944 (The Journal of Biological Chemistry, 2015)
